Reference: patent US10227323B2, “Glucosylceramide synthase inhibitors for the treatment of diseases” (BIOMARIN PHARMACEUTICAL INC., priority 2013, dated 2019)

Biological target: T1, GCS (Canis lupus familiaris, UniProt A0A8I3MXG6)
T1 sequence (A0A8I3MXG6 1-394): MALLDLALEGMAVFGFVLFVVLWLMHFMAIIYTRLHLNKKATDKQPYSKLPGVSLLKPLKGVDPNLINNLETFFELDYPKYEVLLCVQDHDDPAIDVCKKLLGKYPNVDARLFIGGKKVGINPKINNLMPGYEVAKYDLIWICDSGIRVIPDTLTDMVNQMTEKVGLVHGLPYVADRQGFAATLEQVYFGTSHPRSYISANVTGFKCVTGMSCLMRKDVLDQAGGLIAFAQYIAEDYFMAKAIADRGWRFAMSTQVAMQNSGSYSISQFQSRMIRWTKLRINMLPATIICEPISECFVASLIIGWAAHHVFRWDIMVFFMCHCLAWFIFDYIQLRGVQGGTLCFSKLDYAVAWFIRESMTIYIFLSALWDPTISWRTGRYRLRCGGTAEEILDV
Assay: Assay 1: GCS Enzymatic Assay (MDCK cell lysate, C6-NBD-Ceramide, LC/MS)
Assay type: biochemical, canine
Details: Table 2; data marked by *
In short: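 LC/MS/MS measurement of glucosylceramide and NBD-ceramide after a 1 h, 37 °C reaction with 100 μM UDP-glucose and 10 μM C6-NBD-ceramide gave IC50s or percent inhibition.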

| SMILES | % inhibition generated from Assay 1 |
| --- | --- |
| O=C(CCc1ccc2ccccc2c1)C(=O)N[C@H](CN1CCC1)[C@H](O)c1cc(F)c2c(c1)OCCO2 [Compound 145, N-((1R,2R)-3-(azetidin-1-yl)-1-(8-fluoro-2,3-dihydrobenzo[b][1,4]dioxin-6-yl)-1-hydroxypropan-2-yl)-4-(naphthalen-2-yl)-2-oxobutanamide] | A* (the compound had a % inhibition of a percent inhibition of greater than or equal to about 50%) |
| O=C(CCc1ccc2ccccc2c1)C(=O)N[C@H](CN1CCCC1)[C@H](O)c1ccc(OC2CC2)c(Cl)c1 [Compound 147, N-((1R,2R)-1-(3-chloro-4-cyclopropoxyphenyl)-1-hydroxy-3-(pyrrolidin-1-yl)propan-2-yl)-4-(naphthalen-2-yl)-2-oxobutanamide] | A* (the compound had a % inhibition of a percent inhibition of greater than or equal to about 50%) |
| O=C(CCc1ccc2cc(F)ccc2c1)C(=O)N[C@H](CN1CCC1)[C@H](O)c1ccc(OC2CC2)c(Cl)c1 [Compound 154, N-((1R,2R)-3-(azetidin-1-yl)-1-(3-chloro-4-cyclopropoxyphenyl)-1-hydroxypropan-2-yl)-4-(6-fluoronaphthalen-2-yl)-2-oxobutanamide] | B* (the compound had a % inhibition of greater than or equal to about 3% but less than about 50%) |
| O=C(N[C@H](CN1CCC1)[C@H](O)c1ccc(OC2CC2)c(Cl)c1)C(F)(F)c1ccc(-c2ccc(F)cc2)cc1 [Compound 162, N-((1R,2R)-3-(azetidin-1-yl)-1-(3-chloro-4-cyclopropoxyphenyl)-1-hydroxypropan-2-yl)-2,2-difluoro-2-(4′-fluoro-[1,1′-biphenyl]-4-yl)acetamide] | A* (the compound had a % inhibition of a percent inhibition of greater than or equal to about 50%) |
| O=C(N[C@H](CN1CCC1)[C@H](O)c1ccc(OC2CC2)c(Cl)c1)/C(CCc1ccc2ccccc2c1)=N/O [Compound 164, (E)-N-((1R,2R)-3-(azetidin-1-yl)-1-(3-chloro-4-cyclopropoxyphenyl)-1-hydroxypropan-2-yl)-2-(hydroxyimino)-4-(naphthalen-2-yl)butanamide] | A* (the compound had a % inhibition of a percent inhibition of greater than or equal to about 50%) |

Same assay, conditions: Table 2; data without asterisk; read-out: IC50 (nM) generated from Assay 1

| IC50 | SMILES |
| --- | --- |
| < 50 nM | O=C(CCc1ccc2ccccc2c1)C(=O)N[C@H](CN1CCCC1)[C@H](O)c1cc(F)c2c(c1)OCCO2 [Compound 143, N-((1R,2R)-1-(8-fluoro-2,3-dihydrobenzo[b][1,4]dioxin-6-yl)-1-hydroxy-3-(pyrrolidin-1-yl)propan-2-yl)-4-(naphthalen-2-yl)-2-oxobutanamide] |
| < 50 nM | O=C(N[C@H](CN1CCC1)[C@H](O)c1ccc2c(c1)OCCO2)C(F)(F)CCc1ccc2ccccc2c1 [Compound 144, N-((1R,2R)-3-(azetidin-1-yl)-1-(2,3-dihydrobenzo[b][1,4]dioxin-6-yl)-1-hydroxypropan-2-yl)-2,2-difluoro-4-(naphthalen-2-yl)butanamide] |
| < 50 nM | O=C(N[C@H](CN1CCCC1)[C@H](O)c1ccc(OC2CCOCC2)c(Cl)c1)C(F)(F)c1ccc2cc(Cl)ccc2c1 [Compound 146, N-((1R,2R)-1-(3-chloro-4-((tetrahydro-2H-pyran-4-yl)oxy)phenyl)-1-hydroxy-3-(pyrrolidin-1-yl)propan-2-yl)-2-(6-chloronaphthalen-2-yl)-2,2-difluoroacetamide] |
| < 50 nM | O=C(N[C@H](CN1CCCC1)[C@H](O)c1cc(F)c2c(c1)OCCO2)/C(CCc1ccc2ccccc2c1)=N/O [Compound 148, (E)-N-((1R,2R)-1-(8-fluoro-2,3-dihydrobenzo[b][1,4]dioxin-6-yl)-1-hydroxy-3-(pyrrolidin-1-yl)propan-2-yl)-2-(hydroxyimino)-4-(naphthalen-2-yl)butanamide] |
| < 50 nM | O=C(N[C@H](CN1CCCC1)[C@H](O)c1ccc(OC2CC2)c(Cl)c1)C(=O)c1ccc(-c2ccc(F)cc2)cc1 [Compound 149, N-((1R,2R)-1-(3-chloro-4-cyclopropoxyphenyl)-1-hydroxy-3-(pyrrolidin-1-yl)propan-2-yl)-2-(4′-fluoro-[1,1′-biphenyl]-4-yl)-2-oxoacetamide] |
| < 50 nM | O=C(N[C@H](CN1CCC1)[C@H](O)c1cc(F)c2c(c1)OCCO2)C(=O)c1ccc(-c2ccc(F)cc2)cc1 [Compound 150, N-((1R,2R)-3-(azetidin-1-yl)-1-(8-fluoro-2,3-dihydrobenzo[b][1,4]dioxin-6-yl)-1-hydroxypropan-2-yl)-2-(4′-fluoro-[1,1′-biphenyl]-4-yl)-2-oxoacetamide] |
| < 50 nM | O=C(N[C@H](CN1CCCC1)[C@H](O)c1cc(F)c2c(c1)OCCO2)C(=O)c1ccc2cc(Cl)ccc2c1 [Compound 151, 2-(6-chloronaphthalen-2-yl)-N-((1R,2R)-1-(8-fluoro-2,3-dihydrobenzo[b][1,4]dioxin-6-yl)-1-hydroxy-3-(pyrrolidin-1-yl)propan-2-yl)-2-oxoacetamide] |
| < 50 nM | O=C(N[C@H](CN1CCCC1)[C@H](O)c1ccc(OC2CCOCC2)c(Cl)c1)C(=O)c1ccc(-c2ccc(F)cc2)cc1 [Compound 152, N-((1R,2R)-1-(3-chloro-4-((tetrahydro-2H-pyran-4-yl)oxy)phenyl)-1-hydroxy-3-(pyrrolidin-1-yl)propan-2-yl)-2-(4′-fluoro-[1,1′-biphenyl]-4-yl)-2-oxoacetamide] |
| < 50 nM | O=C(N[C@H](CN1CCCC1)[C@H](O)c1ccc(OC2CC2)c(Cl)c1)/C(=N/O)c1ccc(-c2ccc(F)cc2)cc1 [Compound 153, (E)-N-((1R,2R)-1-(3-chloro-4-cyclopropoxyphenyl)-1-hydroxy-3-(pyrrolidin-1-yl)propan-2-yl)-2-(4′-fluoro-[1,1′-biphenyl]-4-yl)-2-(hydroxyimino)acetamide] |
| < 50 nM | O=C(N[C@H](CN1CCC1)[C@H](O)c1cc(F)c2c(c1)OCCO2)/C(=N/O)c1ccc(-c2ccc(F)cc2)cc1 [Compound 155, (E)-N-((1R,2R)-3-(azetidin-1-yl)-1-(8-fluoro-2,3-dihydrobenzo[b][1,4]dioxin-6-yl)-1-hydroxypropan-2-yl)-2-(4′-fluoro-[1,1′-biphenyl]-4-yl)-2-(hydroxyimino)acetamide] |
| < 50 nM | O=C(N[C@H](CN1CCCC1)[C@H](O)c1cc(F)c2c(c1)OCCO2)C(=O)c1ccc2ccc(Cl)cc2c1 [Compound 156, 2-(7-chloronaphthalen-2-yl)-N-((1R,2R)-1-(8-fluoro-2,3-dihydrobenzo[b][1,4]dioxin-6-yl)-1-hydroxy-3-(pyrrolidin-1-yl)propan-2-yl)-2-oxoacetamide] |
| < 50 nM | O=C(N[C@H](CN1CCC1)[C@H](O)c1cc(F)c2c(c1)OCCO2)C(F)(F)c1ccc(-c2ccc(F)cc2)cc1 [Compound 157, N-((1R,2R)-3-(azetidin-1-yl)-1-(8-fluoro-2,3-dihydrobenzo[b][1,4]dioxin-6-yl)-1-hydroxypropan-2-yl)-2,2-difluoro-2-(4′-fluoro-[1,1′-biphenyl]-4-yl)acetamide] |
| < 50 nM | O=C(N[C@H](CN1CCCC1)[C@H](O)c1cc(F)c2c(c1)OCCO2)/C(=N/O)c1ccc2cc(Cl)ccc2c1 [Compound 158, (E)-2-(6-chloronaphthalen-2-yl)-N-((1R,2R)-1-(8-fluoro-2,3-dihydrobenzo[b][1,4]dioxin-6-yl)-1-hydroxy-3-(pyrrolidin-1-yl)propan-2-yl)-2-(hydroxyimino)acetamide] |
| < 50 nM | O=C(N[C@H](CN1CCCC1)[C@H](O)c1ccc(OC2CC2)c(Cl)c1)C(F)(F)c1ccc(-c2ccc(F)cc2)cc1 [Compound 159, N-((1R,2R)-1-(3-chloro-4-cyclopropoxyphenyl)-1-hydroxy-3-(pyrrolidin-1-yl)propan-2-yl)-2,2-difluoro-2-(4′-fluoro-[1,1′-biphenyl]-4-yl)acetamide] |
| < 50 nM | O=C(N[C@H](CN1CCCC1)[C@H](O)c1ccc2c(c1)OCCO2)C(F)(F)c1ccc(-c2ccc(F)cc2)cc1 [Compound 160, N-((1R,2R)-1-(2,3-dihydrobenzo[b][1,4]dioxin-6-yl)-1-hydroxy-3-(pyrrolidin-1-yl)propan-2-yl)-2,2-difluoro-2-(4′-fluoro-[1,1′-biphenyl]-4-yl)acetamide] |
| < 50 nM | O=C(N[C@H](CN1CCC1)[C@H](O)c1ccc2c(c1)OCCO2)C(F)(F)c1ccc(-c2ccc(F)cc2)cc1 [Compound 161, N-((1R,2R)-3-(azetidin-1-yl)-1-(2,3-dihydrobenzo[b][1,4]dioxin-6-yl)-1-hydroxypropan-2-yl)-2,2-difluoro-2-(4′-fluoro-[1,1′-biphenyl]-4-yl)acetamide] |
| < 50 nM | O=C(N[C@H](CN1CCCC1)[C@H](O)c1ccc(OC2CCOCC2)c(Cl)c1)C(F)(F)c1ccc(-c2ccc(F)cc2)cc1 [Compound 163, N-((1R,2R)-1-(3-chloro-4-((tetrahydro-2H-pyran-4-yl)oxy)phenyl)-1-hydroxy-3-(pyrrolidin-1-yl)propan-2-yl)-2,2-difluoro-2-(4′-fluoro-[1,1′-biphenyl]-4-yl)acetamide] |
| < 50 nM | O=C(N[C@H](CN1CCCC1)[C@H](O)c1ccc2c(c1)OCCO2)C(F)(F)CCc1ccc2c(c1)CCCC2 [Compound 165, N-((1R,2R)-1-(2,3-dihydrobenzo[b][1,4]dioxin-6-yl)-1-hydroxy-3-(pyrrolidin-1-yl)propan-2-yl)-2,2-difluoro-4-(5,6,7,8-tetrahydronaphthalen-2-yl)butanamide] |
